ChEMBL document CHEMBL5385893, “Bestatin analogs-4-quinolinone hybrids as antileishmanial hits: Design, repurposing rational, synthesis, in vitro and in silico studies” (Eur J Med Chem, 2023)
Activity calls are given as the source filed them. No cut-off for these calls is given here.

What was measured:
Leishmania donovani [1] = assay: Antileishmanial activity against promastigotes-based model of Leishmania donovani MHOM/SD/62/1S-CL2D assessed as growth inhibition by measuring metabolism of resazurin to resorufin by aerobic respiration at 25 uM measured after 3 days relative to control; assay type: functional; conditions: for inhibition: time 3.0 day; for inhibition at 25 µM: 72 h, time 3 day
Leishmania donovani [2] = assay: Antileishmanial activity against promastigotes-based model of Leishmania donovani MHOM/SD/62/1S-CL2D assessed as growth inhibition by measuring metabolism of resazurin to resorufin by aerobic respiration at 50 uM measured after 3 days relative to control; assay type: functional; conditions: for inhibition at 50 µM: 72 h, time 3 day; for inhibition: time 3.0 day
[3] = Cytotoxicity against human THP-1 cells assessed as cell death by measuring metabolism of resazurin to resorufin measured after 3 days; assay type: toxicity, cell-based; conditions: time 3 day
[4] = Cytotoxicity against human HEK293T cells assessed as cell death by measuring metabolism of resazurin to resorufin measured after 3 days; assay type: toxicity, cell-based, HEK-293T; conditions: time 3 day

SMILES | inhibition (Leishmania donovani [1]) | inhibition at 50 µM (Leishmania donovani [2]) [%] | inhibition at 25 µM (Leishmania donovani [1]) [%] | inhibition (Leishmania donovani [2]) | CC50 at 72 h [3] [µM] | CC50 at 72 h [4] [µM]
COc1ccc(CNC(=O)C(=O)[C@H](Cc2ccccc2)NC(=O)c2[nH]c3ccccc3c(=O)c2C)cc1OC | inactive | 38 |  |  |  | 
Cc1c(C(=O)N[C@@H](Cc2ccccc2)[C@@H](O)C(=O)NCc2ccc(F)cc2)[nH]c2ccccc2c1=O | inactive | 8 |  |  |  | 
Cc1c(C(=O)N[C@@H](Cc2ccccc2)[C@@H](O)C(=O)NC(C)C)[nH]c2ccccc2c1=O | inactive | 4 |  |  |  | 
Cc1c(C(=O)N[C@@H](Cc2ccccc2)[C@@H](O)C(=O)NCCc2ccccn2)[nH]c2ccccc2c1=O |  | 31 | 8 |  |  | 
Cc1c(C(=O)N[C@@H](Cc2ccccc2)C(=O)C(N)=O)[nH]c2ccccc2c1=O | inactive |  |  | inactive |  | 
COc1ccc(CNC(=O)C(=O)[C@H](Cc2ccccc2)NC(=O)c2[nH]c3ccccc3c(=O)c2C)cc1 | inactive | 9 |  |  |  | 
COc1ccc(CNC(=O)[C@H](O)[C@H](Cc2ccccc2)NC(=O)c2[nH]c3ccccc3c(=O)c2C)cc1OC | inactive | 23 |  |  |  | 
COc1ccc(CNC(=O)[C@H](O)[C@H](Cc2ccccc2)NC(=O)c2[nH]c3ccccc3c(=O)c2C)cc1 | inactive | 16 |  |  |  | 
Cc1c(C(=O)N[C@@H](Cc2ccccc2)C(=O)C(=O)NC(C)C)[nH]c2ccccc2c1=O | inactive |  |  | inactive |  | 
Cc1c(C(=O)N[C@@H](Cc2ccccc2)[C@@H](O)C(=O)NCc2ccccn2)[nH]c2ccccc2c1=O | inactive | 12 |  |  |  | 
Cc1c(C(=O)N[C@@H](Cc2ccccc2)[C@@H](O)C(=O)NCCc2ccccc2)[nH]c2ccccc2c1=O | inactive |  |  | inactive |  | 
Cc1c(C(=O)N[C@@H](Cc2ccccc2)[C@@H](O)C(=O)NCc2ccccc2)[nH]c2ccccc2c1=O |  | 91 | 53 |  | 93 | > 200
CCNC(=O)C(=O)[C@H](Cc1ccccc1)NC(=O)c1[nH]c2ccccc2c(=O)c1C | inactive |  |  | inactive |  | 
CNC(=O)C(=O)[C@H](Cc1ccccc1)NC(=O)c1[nH]c2ccccc2c(=O)c1C | inactive |  |  | inactive |  | 
CCCCCCCC/C=C\CCCCCCCCCCCCOP(=O)([O-])OCCC[N+](C)(C)C |  | 108 | 106 |  | 2 | 28
Cc1c(C(=O)N[C@@H](Cc2ccccc2)C(=O)C(=O)NCc2ccc(F)cc2)[nH]c2ccccc2c1=O | inactive |  |  | inactive |  | 
COc1ccc(CCNC(=O)[C@H](O)[C@H](Cc2ccccc2)NC(=O)c2[nH]c3ccccc3c(=O)c2C)cc1 | inactive | 13 |  |  |  | 
Cc1c(C(=O)N[C@@H](Cc2ccccc2)[C@@H](O)C(N)=O)[nH]c2ccccc2c1=O |  | 51 | 17 |  | > 200 | > 200
Cc1c(C(=O)N[C@@H](Cc2ccccc2)C(=O)C(=O)NCCc2ccccn2)[nH]c2ccccc2c1=O | inactive |  |  | inactive |  | 
CCNC(=O)[C@H](O)[C@H](Cc1ccccc1)NC(=O)c1[nH]c2ccccc2c(=O)c1C | inactive | 1 |  |  |  | 
COc1ccc(CCNC(=O)C(=O)[C@H](Cc2ccccc2)NC(=O)c2[nH]c3ccccc3c(=O)c2C)cc1 | inactive | 23 |  |  |  | 
Cc1c(C(=O)N[C@@H](Cc2ccccc2)C(=O)C(=O)NCc2ccccc2)[nH]c2ccccc2c1=O |  | 22 | 3 |  |  | 
Cc1c(C(=O)N[C@@H](Cc2ccccc2)C(=O)C(=O)NCCc2ccccc2)nc2ccccc2c1O |  | 50 | 38 |  | > 200 | 107
Cc1c(C(=O)N[C@@H](Cc2ccccc2)C(=O)C(=O)NCc2ccccn2)[nH]c2ccccc2c1=O | inactive |  |  | inactive |  | 
CNC(=O)[C@H](O)[C@H](Cc1ccccc1)NC(=O)c1[nH]c2ccccc2c(=O)c1C |  | 22 | 1 |  |  | 
